Among the data in US20240059915A1, “COLOR-CHANGE INK” (Société BIC, priority 2020, published 2024) are Solubility values, retold here.

The nature of this series: Solubility of Acid Blue 93 in several solvents. In kind it is physicochemical. How it is done: The solubility of Acid Blue 93, a water-soluble pH-sensitive triarylmethane dye, was determined by stirring 5 wt.-%0 of the dye in 95 wt.-%0 of the solvent. The following results reported in below Table 1 were obtained:
This is surprising since these water-soluble dyes are commonly known to be insoluble in organic solvents, as also seen in the above comparative solvents. In these comparative solvents, it can be observed that the solvent is not colored and that the dye remains in the form of particles and precipitates at the bottom of the recipient.

Take `O=S(=O)([O-])c1ccc(N=C2C=CC(=C(c3ccc(Nc4ccc(S(=O)(=O)[O-])cc4)cc3)c3ccc(Nc4ccc(S(=O)(=O)O)cc4)cc3)C=C2)cc1.[Na+].[Na+]` [Acid Blue 93]: the Solubility entry runs as follows: (5 wt.-% dye stirred in 95 wt.-% 1,2-propanediol) “Soluble”; (5 wt.-% dye stirred in 95 wt.-% 1-phenoxy-2-propanol) “Insoluble”; (5 wt.-% dye stirred in 95 wt.-% 1-phenoxy-ethanol) “Insoluble”; (5 wt.-% dye stirred in 95 wt.-% Carbitol (CAS 111-90-0)) “Insoluble”; (5 wt.-% dye stirred in 95 wt.-% benzylic alcohol) “Insoluble”; (5 wt.-% dye stirred in 95 wt.-% cyrene) “Insoluble”. Also, the Solubility result is “Soluble” (5 wt.-% dye stirred in 95 wt.-% diethyleneglycol), “Soluble” (5 wt.-% dye stirred in 95 wt.-% dimethylsulfoxide), “Insoluble” (5 wt.-% dye stirred in 95 wt.-% dipropylene glycol) and “Soluble” (5 wt.-% dye stirred in 95 wt.-% monoethyleneglycol).
